Data taken from US12187723B2 (BRISTOL-MYERS SQUIBB COMPANY, priority 2019, dated 2025).

Experiments:
human TLR9 = target: T1, human TLR9 (Homo sapiens, UniProt Q9NR96); assay: TLR9 inhibition reporter assay (HEK-Blue SEAP); type: cell-based; conditions: HEK-Blue cells overexpressing human TLR9, ODN2006 5 nM, 22 hour incubation
T1 construct: host or cells: HEK-Blue cells
T1 sequence (Q9NR96 26-1032): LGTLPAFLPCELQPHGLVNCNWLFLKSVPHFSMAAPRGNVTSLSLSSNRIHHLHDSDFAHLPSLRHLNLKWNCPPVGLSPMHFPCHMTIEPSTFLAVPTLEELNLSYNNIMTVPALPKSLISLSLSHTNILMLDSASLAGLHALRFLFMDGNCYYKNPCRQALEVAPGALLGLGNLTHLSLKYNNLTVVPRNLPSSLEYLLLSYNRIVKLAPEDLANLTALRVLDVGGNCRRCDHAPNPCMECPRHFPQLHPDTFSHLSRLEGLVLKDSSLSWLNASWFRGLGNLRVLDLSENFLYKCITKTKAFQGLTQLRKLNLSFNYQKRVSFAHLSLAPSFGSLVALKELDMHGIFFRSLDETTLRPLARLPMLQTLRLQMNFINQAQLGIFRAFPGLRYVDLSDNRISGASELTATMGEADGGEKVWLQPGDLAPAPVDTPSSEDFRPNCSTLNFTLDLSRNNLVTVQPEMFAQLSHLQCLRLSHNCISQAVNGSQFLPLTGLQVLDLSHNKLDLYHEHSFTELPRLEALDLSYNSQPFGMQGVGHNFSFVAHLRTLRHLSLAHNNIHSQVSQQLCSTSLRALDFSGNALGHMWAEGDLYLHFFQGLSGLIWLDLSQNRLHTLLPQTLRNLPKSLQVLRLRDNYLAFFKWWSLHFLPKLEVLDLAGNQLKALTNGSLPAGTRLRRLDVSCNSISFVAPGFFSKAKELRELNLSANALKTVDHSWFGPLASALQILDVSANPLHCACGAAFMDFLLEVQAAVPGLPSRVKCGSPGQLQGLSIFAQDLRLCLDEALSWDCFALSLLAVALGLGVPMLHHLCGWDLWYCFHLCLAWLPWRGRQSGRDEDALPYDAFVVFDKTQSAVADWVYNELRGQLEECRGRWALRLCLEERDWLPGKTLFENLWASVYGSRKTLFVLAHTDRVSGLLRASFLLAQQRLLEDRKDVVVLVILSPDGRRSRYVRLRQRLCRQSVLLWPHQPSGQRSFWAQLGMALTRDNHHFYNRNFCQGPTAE
Outline: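 HEK-Blue cells overexpressing human TLR7, TLR8 or TLR9 carry a SEAP reporter driven by NF-κB/AP-1 sites. Compounds (0.05 nM–50 μM) were preincubated 30 min at room temperature, then cells were stimulated with gardiquimod 7.5 μM (TLR7), R848 15.9 μM (TLR8) or ODN2006 5 nM (TLR9) for 22 h at 37 °C.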

human TLR7 = target: T2, human TLR7 (Homo sapiens, UniProt Q9NYK1); assay: TLR7 inhibition reporter assay (HEK-Blue SEAP); type: cell-based; conditions: HEK-Blue cells overexpressing human TLR7, gardiquimod 7.5 μM, 22 hour incubation
T2 construct: host or cells: HEK-Blue cells
T2 sequence (Q9NYK1 27-1049): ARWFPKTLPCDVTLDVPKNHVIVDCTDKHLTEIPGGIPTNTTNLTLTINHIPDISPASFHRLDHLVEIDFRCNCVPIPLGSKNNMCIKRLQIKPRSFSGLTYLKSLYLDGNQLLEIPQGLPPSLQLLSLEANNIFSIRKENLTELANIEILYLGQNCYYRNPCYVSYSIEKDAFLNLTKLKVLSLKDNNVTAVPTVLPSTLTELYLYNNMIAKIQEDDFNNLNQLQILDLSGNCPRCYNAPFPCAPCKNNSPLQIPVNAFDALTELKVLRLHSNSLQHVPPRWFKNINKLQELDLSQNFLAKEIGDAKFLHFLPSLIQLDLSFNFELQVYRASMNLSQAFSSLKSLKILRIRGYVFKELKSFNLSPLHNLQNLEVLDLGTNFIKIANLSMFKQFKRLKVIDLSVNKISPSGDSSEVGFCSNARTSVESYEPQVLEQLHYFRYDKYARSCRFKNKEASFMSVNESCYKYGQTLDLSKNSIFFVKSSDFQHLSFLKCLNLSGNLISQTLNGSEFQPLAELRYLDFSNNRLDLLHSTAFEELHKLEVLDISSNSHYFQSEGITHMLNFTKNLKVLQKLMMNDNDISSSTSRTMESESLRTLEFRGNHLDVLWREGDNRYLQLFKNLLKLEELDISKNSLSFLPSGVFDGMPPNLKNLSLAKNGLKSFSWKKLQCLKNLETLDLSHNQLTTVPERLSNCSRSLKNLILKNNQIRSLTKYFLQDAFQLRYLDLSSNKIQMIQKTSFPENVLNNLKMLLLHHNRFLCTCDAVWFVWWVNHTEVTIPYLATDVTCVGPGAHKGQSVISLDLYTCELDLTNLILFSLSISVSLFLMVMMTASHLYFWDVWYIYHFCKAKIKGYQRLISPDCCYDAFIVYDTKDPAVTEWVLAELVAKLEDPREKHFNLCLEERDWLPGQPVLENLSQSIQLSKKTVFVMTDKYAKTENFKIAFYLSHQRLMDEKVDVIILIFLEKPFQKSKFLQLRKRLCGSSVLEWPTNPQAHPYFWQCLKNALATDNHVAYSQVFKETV
Outline: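 SEAP readout via HEK-Blue Detection medium after 22 h at 37 °C, 5% CO2 defines inhibition, normalized between agonist-plus-DMSO wells and a reference inhibitor. Compound dose range 0.05 nM–50 μM; TLR7 cells at 15,000/well (gardiquimod), TLR8 at 20,000/well (R848).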

IC50 (human TLR9): 12.6 µM | IC50 (human TLR7): 0.565 µM
SMILES: Cc1cc2c(cc1-c1cc(C)c3ncnn3c1)[nH]c(=O)n2[C@H]1CCCN(CC(=O)N(C)C)C1 [Example 93, (S)—N,N-dimethyl-2-(3-(6-methyl-5-(8-methyl-[1,2,4]triazolo[1,5-a]pyridin-6-yl)-2-oxo-2,3-dihydro-1H-benzo[d]imidazol-1-yl)piperidin-1-yl)acetamide]
